System: cisplatin-induced hearing loss in guinea pigs
Test: Hearing protection by locally delivered STS Composition from cisplatin challenge (ABR)
Format: in vivo, guinea pig
Settings: at both 24 kHz and 32 kHz
From the text: Historical ABR data were used to define a baseline. The animals were anesthetized with tiletamine hydrochloride and zolazepam hydrochloride (Zoletil). Acoustic stimuli were delivered via an earphone. Needle electrodes were placed near the ear canal at the causoventral position, the vertex of the skull, and a ground at the lower leg. The stimulus level was from 10 to 90 dB in 5 dB steps, and the tone-pip frequencies were 4, 24, and 32 kHz. The ceiling sound pressure level was 90 dB. ABR threshold was observed by visual inspection of stacked waveforms as the lowest sound pressure level, at which the waveform was above the noise floor.
An aqueous composition of 0.5M sodium thiosulfate/2% (w/v) hyaluronan (STS Composition) or vehicle was dosed intratympanically onto the round window in the left ear (LE) as described above, and the right ear (RE) was left untreated in the guinea pigs (FIG. 5).
Because of heterogeneity of hearing loss after cisplatin challenge, the untreated right ears was used to select the animals with hearing loss. There were 21 animals with right ear threshold >60 dB at 32 kHz. Of these 21 animals, 3 with otitis media were excluded, leaving 18 animals for the final analysis. 10 animals were dosed with vehicle and 8 animals were dosed with STS Composition (FIG. 4B). […]

## O=S([O-])([O-])=S.[Na+].[Na+] [sodium thiosulfate]
  protection (on average): 80%

From patent publication US11857567B2, “Hypertonic pharmaceutical compositions containing an anti-platinum chemoprotectant agent” (Decibel Therapeutics, Inc., priority 2018, dated 2024)
